Data published in patent US7385395B2, “Apparatus for preparing a solution of a hyperpolarized noble gas for NMR and MRI analysis” (priority 1996, dated 2008).
Read-outs that look alike come from different tables or passages of the source.

How the values were obtained:
red blood cell (RBC) [1] = settings: room temperature; Herbst et al. 1989; cited from earlier work
human blood = assay: 129Xe NMR relaxation and signal of xenon delivered to human blood / red blood cell sample in vitro; assay type: in vitro ADME
Protocol: The portion removed accounted for approximately 30% of the total volume of the blood sample. Following removal of a portion of the plasma, xenon saturated saline (1 mL) was injected into the red blood cell (RBC) sample (1 mL) and the ^129Xe NMR was measured. The NMR spectra were measured on a Bruker AM-400 spectrometer.
By using short rf pulses of small tipping angle, ^129Xe NMR spectra were acquired as a function of time after injection of the xenon/saline mixture into the blood. NMR spectra were measured on a Bruker AM-400 spectrometer.
A solution of hyperpolarized xenon in […] ® was prepared in the same manner as described for the saline solution of hyperpolarized xenon, however, the shaker was charged with […] ® rather than saline. […] The […] ® solution was charged with laser polarized ^129Xe and an aliquot (1 mL) of this solution was added to human blood (1 mL). The spectra were obtained on a Bruker AM-400 spectrometer.
A solution of hyperpolarized xenon in FLUOSOL® was prepared in the same manner as described for the saline solution of hyperpolarized xenon, however, the shaker was charged with FLUOSOL® rather than saline. The FLUOSOL® solution was charged with laser polarized ^129Xe and an aliquot (1 mL) of this solution was added to human blood (1 mL). The spectra were obtained on a Bruker AM-400 spectrometer.

[2] = rat, in vivo
Protocol: Male rats weighing 200-250 grams were anesthetized by intramuscular injection of ketamine/xylazine/acepromazine (30/3/0.6 mg/kg). Supplemental intramuscular doses were administered as needed to maintain anesthesia. A venous catheter was placed into a tail vein, and the receiver/transmitter surface coil was placed over the heart and liver (FIG. 18). Acquisitions began at start of the injection. Prior to each experiment the rat was placed in lateral recumbency into the magnet. At the conclusion of each experiment, the catheter was removed and the rat was returned to its cage to recover from anesthesia.
The ^129Xe NMR spectra were obtained on a home-built NMR spectrometer interfaced with a Bruker 2.35 T magnet (xenon frequency: 27.68 MHz, bore diameter: 25 cm). […] For the spectroscopy experiment, spectra were obtained every second (pulse angle: ≈20°).
The rats, anesthesia and apparatus were as described in Example 10, above.

red blood cell (RBC) [3] = system: red blood cell (RBC)
Protocol: NMR spectra were measured on a CMX Infinity spectrometer (Chemamagnetics-Otsuka Electronics, Fort Collins, Colo., U.S.A.) at a magnetic field of 4.3 Tesla.
The xenon exchange rate between the extracellular and intracellular compartments of a RBC/saline/plasma sample was measured by selectively inverting the xenon saline/plasma NMR line and observing the recovery of the two signals. The selective inversion was achieved by an amplitude-modulated Gaussian pulse of 1 ms duration centered at the frequency of the saline/plasma signal. […] A field gradient pulse of 1 ms was applied after the inversion pulse to dephase any components of the transverse magnetization. After the inversion pulse, xenon spectra were taken at fixed time intervals using a small tipping angle (20°). Following the addition of the xenon/saline solution into the RBC sample, a delay of 3 seconds before the application of the inversion pulse insured that the xenon/RBC system was well mixed and equilibrated.
[formula] where τRBC and τp1 are residence time constants for xenon in the RBC and saline/plasma, and 1/τ=1/τRBC+1/τp1. S^oRBC and S^op1 are the initial intensities for the RBC and the plasma/saline components, respectively, immediately after the inversion pulse. The effect of the spin-lattice relaxation is neglected since τ<<T1, making S^oRBC+S^op1 a constant during the exchange process.

[4] = in saline; STP volume of xenon dissolved in 1 liter of liquid at 1 atm gas pressure; cited from earlier work
[5] = 129Xe spin-lattice relaxation time (T1) of hyperpolarized xenon in solution; assay type: physicochemical
Protocol: The design of the shaker used in the dissolution stage for xenon mixing and delivery is illustrated in FIG. 1. The shaker has a small sidearm which can be isolated from the main volume by a stopcock. The shaker is charged with a sample of either normal abundance or isotopically enriched xenon (80% ^129Xe, EG&G Mound, Miamisburg, Ohio, U.S.A.). Laser polarization is performed prior to admitting the xenon to the shaker. Briefly, approximately 5×10^−4 mol of 80. % isotopically enriched ^129Xe was optically pumped in a 30 cc cylindrical glass pumping cell (diameter≈30 mm). Before optical pumping, the cell was cleaned and coated with SURFASIL® (Pierce Chemical Co., Florence, Mass., U.S.A.); the cell was then evacuated to 10^−6 torr and loaded with one drop of melted rubidium metal in a dry nitrogen environment. Optical pumping was performed with a 1.3 W continuous-wave Ti:sapphire laser (794.7 nm) for 20-30 min, and the temperature of the cell was maintained at 60-80° C. by a temperature-controlled nitrogen gas stream. Typically, the apparatus produces xenon polarization levels in the range of 5-10%.
Following laser polarization, the polarized ^129Xe is frozen at liquid nitrogen temperatures in the sidearm in a magnetic field of approximately 50 mT provided by a small permanent magnet. The magnetic field is used in the freezing stage to prevent the decay of xenon polarization. The xenon is sublimated and then admitted into the solution. The small size of the shaker allows for the accumulation of several atmospheres of xenon pressure which aids in increasing the xenon concentration in the solution. During the dissolution procedure, the vessel is vigorously shaken to help dissolve the xenon gas. The resulting xenon solution is extracted with a syringe through a high-pressure rubber septum. In those examples below wherein a solution NMR study is performed on an in vitro sample, the xenon is immediately injected into an NMR tube which contains the sample to be studied.
Solutions of hyperpolarized ^129Xe in partially deuterated benzene (25% C6D5H, 75% C6D6) were prepared as described above for saline solutions of ^129Xe with the exception that the shaker was charged with the benzene solution rather than saline. Typically, 4×10^−4 mol of enriched ^129Xe (80%, EG&G Mound) were used in one experiment at a pressure of 1 atm. ^129Xe NMR was performed at 51 MHz on a Quest 4300 spectrometer (Nalorac Cryogenics, Martinez, Calif., U.S.A.) with a home built probe and a tipping angle of 3°. ^1H NMR was performed at 185 MHz with a home built probe and a tipping angle of 3°.
Hyperpolarized xenon and mixtures of hyperpolarized xenon and cyclodextrins were prepared generally as discussed above. SPINOE signals of 0.05 M cyclodextrin solutions in deuterated DMSO were measured as described above in Example 8.

[6] = selective inversion experiment, 4.3 Tesla

Row | T1 of the narrow peak (human blood; xenon/FLUOSOL solution 1 mL added to human blood 1 mL, 216 ppm RBC peak) | T1 decay time of the signal at 194 ppm (human blood; xenon/INTRALIPID solution 1 mL added to human blood 1 mL) | T1 decay time relative to xenon in saline water/blood mixture (human blood; xenon/INTRALIPID solution in blood, 194 ppm signal) | time of maximum xenon signal intensity after start of injection [2] | equilibrium distribution of the integral of the two peaks (RBC vs saline/plasma) (red blood cell (RBC) [3]) | ratio of integrated intensities of broad (FLUOSOL) and narrow (RBC) peaks (red blood cell (RBC) [3]) | ratio of peak of xenon in INTRALIPID solution to peak of intracellular xenon (red blood cell (RBC) [3]) | 129Xe T1 ([5]; 0.1 M p-nitrotoluene in deuterated benzene) | 129Xe T1 ([5]; 0.1 M α-cyclodextrin solution in deuterated DMSO) | T1 of xenon ([5]; H2O/saline (0.9% NaCl), 9.4 T) | xenon T1 ([5]; in INTRALIPID solution) | observed spin-lattice relaxation time of 129Xe in solution ([5]; normal benzene, combination of gas and solution relaxation times) | observed spin-lattice relaxation time of 129Xe in solution ([5]; partially deuterated benzene (25% C6D5H, 75% C6D6)) | T1 of xenon ([5]; saline made with D2O) | SMILES | residence time constant in the RBC, τRBC (red blood cell (RBC) [1]) | residence time constant in saline/plasma, τpl (red blood cell (RBC) [3]; [6]) | residence time constant in the RBC, τRBC (red blood cell (RBC) [3]; [6]) | exchange time constant τ (1/τ=1/τRBC+1/τpl) (red blood cell (RBC) [3]; selective inversion of saline/plasma line, 4.3 Tesla) | Ostwald coefficient [4]
1 | – | – | – | – | – | – | – | – | – | – | – | – | – | – | O [water] | 12 ± 2 ms | – | – | – | –
2 | 13 ± 1 s | 16 s | approximately 3 fold | 7 s | approximately 50% | approximately 3 | approximately 6:1 | > 500 s | 20 s | 66 s | 40 ± 3 s | ~200 s | ~1000 s | ≈ 1000 s | [Xe] [xenon] | – | 29.1 ± 2 ms | 20.4 ± 2 ms | 12.0 ± 1 ms | 0.0926
